# According to article PMC12044326 (Clinical Pharmacology in Drug Development, 2025):
# How the values were obtained:
# CYP3A4 = system: CYP3A4; set-up: method as in PMID 15242978, PMID 9929500; details: cited from earlier work
# in vitro = details: human, Caco-2
Papp (in vitro),SMILES,CYP3A4 inhibitor potency over ketoconazole (CYP3A4)
,CCC(C)n1ncn(-c2ccc(N3CCN(c4ccc(OCC5COC(Cn6cncn6)(c6ccc(Cl)cc6Cl)O5)cc4)CC3)cc2)c1=O (centres unmarked) [itraconazole],~10 fold
27.8 ×10⁻⁶ cm/s,"CC(C)NCC(O)COc1cccc2ccccc12 (centres unmarked) [propranolol, reference compound]",
